In ChEMBL document CHEMBL4382259, “Synthesis of novel guttiferone E and xanthochymol derivatives with cytotoxicities by inducing cell apoptosis and arresting the cell cycle phase” (Eur J Med Chem, 2019) one finds IC50 data, which are given here for 27 compounds.

Holding throughout (type): functional, cell-based
One experiment has as its system MCF7. Briefly: Antiproliferative activity against human MCF7 cells after 72 hrs by MTT assay. The settings on record: MCF7, 72 h. In general terms: Formazan colour is commonly taken as a measure of viable cells.
The next experiment has as its system A549. Briefly: Antiproliferative activity against human A549 cells after 72 hrs by MTT assay. As to conditions: A549, 72 h.
The next experiment relates to K562. The experiment can be described thus: Antiproliferative activity against human K562 cells after 72 hrs by MTT assay. The settings on record: K562, 72 h.
The test system of the next experiment is HeLa. Briefly: Antiproliferative activity against human HeLa cells after 72 hrs by MTT assay.
For another experiment, the system named is HEL. Briefly: Antiproliferative activity against HEL cells after 72 hrs by MTT assay. As to conditions: Homo sapiens.

Usually IC50 stands for the midpoint of a concentration-inhibition curve. The low end stands for inhibition by little substance, the high end for a need for much substance.

Regarding `CC(C)=CC[C@H]1C[C@@]23C[C@@H](CC=C(C)C)C(C)(C)[C@@](CC=C(C)C)(C(=O)C(C(=O)c4ccc(O)c(OC(=O)c5cccs5)c4)=C2OC1(C)C)C3=O`, the IC50 in the experiment with MCF7 was over 20 µM; with A549 it was over 20 µM; in the experiment on K562, 13.9 µM; with HeLa, 10.8 µM; in the experiment on HEL, 9.56 µM.

Regarding `COc1ccc(C(=O)C2=C3OC(C)(C)[C@@H](CC=C(C)C)C[C@@]34C[C@@H](CC=C(C)C)C(C)(C)[C@@](CC=C(C)C)(C2=O)C4=O)cc1O`, the IC50 in the experiment with MCF7 is over 20 µM; in the experiment on A549, over 20 µM; in the experiment on K562, 14.5 µM; in the experiment with HeLa it was 10.9 µM; in the experiment with HEL it was 13.4 µM.

Regarding `CC(C)=CC[C@H]1C[C@@]23C[C@@H](CC=C(C)C)C(C)(C)[C@@](CC=C(C)C)(C(=O)C(C(=O)c4ccc(OCCCCCN5CCOCC5)c(OCCCCCN5CCOCC5)c4)=C2OC1(C)C)C3=O`, the IC50 with MCF7 was over 20 µM; in the experiment on A549, over 20 µM; in the experiment on K562, over 20 µM; in the experiment on HeLa, 5 µM; in the experiment with HEL, over 20 µM.

`CC(C)=CC[C@H]1C[C@@]23C[C@@H](CC=C(C)C)C(C)(C)[C@@](CC=C(C)C)(C(=O)C(C(=O)c4ccc(OCc5ccccc5)c(O)c4)=C2OC1(C)C)C3=O`: the IC50 with MCF7 was over 20 µM; in the experiment with A549 it was 10.6 µM; in the experiment with K562, over 20 µM; in the experiment on HeLa it was 15.9 µM; in the experiment on HEL, over 20 µM.

For the compound `COc1cccc2c1C(=O)c1c(O)c3c(c(O)c1C2=O)C[C@@](O)(C(=O)CO)C[C@@H]3O[C@H]1C[C@H](N)[C@H](O)[C@H](C)O1` [DOXORUBICIN], the IC50 in the experiment on MCF7 was determined as 1.74 µM; in the experiment with A549, 3.16 µM; with K562, 0.65 µM; in the experiment on HeLa, 1.69 µM; in the experiment on HEL, 0.42 µM.

On to `C=C(C)[C@@H](CC=C(C)C)C[C@]12C[C@@H](CC=C(C)C)C(C)(C)[C@](CC=C(C)C)(C1=O)c1oc3cc(O)c(O)cc3c(=O)c1C2=O`, for which the IC50 in the experiment on MCF7, in the experiment with A549, in the experiment on K562, with HeLa and in the experiment on HEL was over 20 µM in each case.

Consider `CC(C)=CC[C@H]1C[C@@]23C[C@@H](CC=C(C)C)C(C)(C)[C@@](CC=C(C)C)(C(=O)C(C(=O)c4ccc(OCCCCCBr)c(OCCCCCBr)c4)=C2OC1(C)C)C3=O`, for which the IC50 in the experiment with MCF7, in the experiment with A549, in the experiment on K562, with HeLa and in the experiment on HEL was over 20 µM in each case.

On to `COc1ccc(C(=O)C2=C3OC(C)(C)[C@@H](CC=C(C)C)C[C@@]34C[C@@H](CC=C(C)C)C(C)(C)[C@@](CC=C(C)C)(C2=O)C4=O)cc1OC`, for which the IC50 with MCF7 was over 20 µM; in the experiment on A549, over 20 µM; in the experiment on K562 it was over 20 µM; in the experiment with HeLa, 19.7 µM; with HEL it was over 20 µM.

As for `C#CCOc1ccc(C(=O)C2=C3OC(C)(C)[C@@H](CC=C(C)C)C[C@@]34C[C@@H](CC=C(C)C)C(C)(C)[C@@](CC=C(C)C)(C2=O)C4=O)cc1OCC#C`, the IC50 was over 20 µM with MCF7; over 20 µM with A549; 17.6 µM with K562; over 20 µM with HeLa; 8.89 µM with HEL.

With `CC(C)=CC[C@H]1C[C@@]23C[C@@H](CC=C(C)C)C(C)(C)[C@@](CC=C(C)C)(C(=O)C(C(=O)c4ccc(OCCCCCBr)c(O)c4)=C2OC1(C)C)C3=O`, the IC50 in the experiment with MCF7 is 9.29 µM; with A549, over 20 µM; in the experiment on K562 it was over 20 µM; in the experiment on HeLa, 15.5 µM; with HEL it was over 20 µM.

Regarding `CC(C)=CC[C@H]1C[C@@]23C[C@@H](CC=C(C)C)C(C)(C)[C@@](CC=C(C)C)(C(=O)C(C(=O)c4ccc(OCc5ccccc5)c(OCc5ccccc5)c4)=C2OC1(C)C)C3=O`, the IC50 in the experiment on MCF7 was 15.1 µM; in the experiment on A549 it was over 20 µM; in the experiment on K562, over 20 µM; with HeLa it was 10.6 µM; with HEL it was over 20 µM.

Regarding `CC(C)=CC[C@H]1C[C@@]23C[C@@H](CC=C(C)C)C(C)(C)[C@@](CC=C(C)C)(C(=O)C(C(=O)c4ccc(O)c(OS(=O)(=O)c5ccc(C)cc5)c4)=C2OC1(C)C)C3=O`, the IC50 in the experiment on MCF7 is 15.8 µM; with A549 it was over 20 µM; with K562, over 20 µM; with HeLa it was 18.4 µM; in the experiment with HEL it was 4.66 µM.

Regarding `CCN(CC)CCCCCOc1ccc(C(=O)C2=C3OC(C)(C)[C@@H](CC=C(C)C)C[C@@]34C[C@@H](CC=C(C)C)C(C)(C)[C@@](CC=C(C)C)(C2=O)C4=O)cc1OCCCCCN(CC)CC`, the IC50 was 7.56 µM in the experiment with MCF7; 17.2 µM with A549; over 20 µM with K562; 11.3 µM in the experiment with HeLa; over 20 µM in the experiment with HEL.

Regarding `CC(C)=CC[C@H]1C[C@@]23C[C@@H](CC=C(C)C)C(C)(C)[C@@](CC=C(C)C)(C(=O)C(C(=O)c4ccc(OS(=O)(=O)c5ccc(C)cc5)c(OS(=O)(=O)c5ccc(C)cc5)c4)=C2OC1(C)C)C3=O`, the IC50 was 3.15 µM with MCF7; 9.53 µM in the experiment on A549; over 20 µM in the experiment on K562; 6.25 µM in the experiment on HeLa; over 20 µM in the experiment with HEL.

Regarding `CC(C)=CC[C@H]1C[C@@]23C[C@@H](CC=C(C)C)C(C)(C)[C@@](CC=C(C)C)(C(=O)C(C(=O)c4ccc(O)c(OC(=O)c5ccccc5)c4)=C2OC1(C)C)C3=O`, the 50% inhibitory concentration (IC50) is 9.99 µM in the experiment on MCF7; 9.33 µM with A549; 13.8 µM in the experiment on K562; 6.17 µM with HeLa; 9.51 µM in the experiment with HEL.

For `CC(C)=CC[C@H]1C[C@]23C[C@@H](CC=C(C)C)C(C)(C)[C@H]4CCC(C)(C)O[C@]42OC(=O)C(C(=O)c2ccc(OC(=O)c4ccc(Br)cc4)c(OC(=O)c4ccc(Br)cc4)c2)=C3OC1(C)C`, the IC50 with MCF7, in the experiment on A549, with K562, in the experiment with HeLa and in the experiment with HEL was over 20 µM each time.

On to `CCCCCC(=O)Oc1cc(C(=O)C2=C3OC(C)(C)[C@@H](CC=C(C)C)C[C@@]34C[C@@H](CC=C(C)C)C(C)(C)[C@H]3CCC(C)(C)O[C@]34OC2=O)ccc1O`, for which the IC50 is 15.5 µM in the experiment on MCF7; 19.5 µM in the experiment on A549; 13.5 µM with K562; over 20 µM in the experiment on HeLa; 9.53 µM in the experiment on HEL.

With `C=C(C)[C@@H](CC=C(C)C)C[C@@]12C[C@@H](CC=C(C)C)C(C)(C)[C@@](CC=C(C)C)(C(=O)c3c1oc1cc(O)c(O)cc1c3=O)C2=O`, the IC50 in the experiment on MCF7 is over 20 µM; in the experiment with A549, over 20 µM; in the experiment with K562, 10.4 µM; in the experiment on HeLa, over 20 µM; in the experiment with HEL, 4.5 µM.

As to `CCCCCC(=O)Oc1ccc(C(=O)C2=C3OC(C)(C)[C@@H](CC=C(C)C)C[C@@]34C[C@@H](CC=C(C)C)C(C)(C)[C@H]3CCC(C)(C)O[C@]34OC2=O)cc1OC(=O)CCCCC`, the IC50 in the experiment with MCF7 was 16.6 µM; in the experiment on A549, 19.2 µM; in the experiment with K562, over 20 µM; in the experiment with HeLa it was 15.4 µM; with HEL, 19.9 µM.

On to `CC(C)=CC[C@H]1C[C@]23C[C@@H](CC=C(C)C)C(C)(C)[C@H]4CCC(C)(C)O[C@]42OC(=O)C(C(=O)c2ccc(OC(=O)c4ccccc4)c(OC(=O)c4ccccc4)c2)=C3OC1(C)C`, for which the IC50 in the experiment with MCF7, in the experiment with A549, in the experiment with K562, with HeLa and in the experiment with HEL was over 20 µM throughout.

Take `CCC(=O)Oc1ccc(C(=O)C2=C3OC(C)(C)[C@@H](CC=C(C)C)C[C@@]34C[C@@H](CC=C(C)C)C(C)(C)[C@H]3CCC(C)(C)O[C@]34OC2=O)cc1OC(=O)CC`: the IC50 in the experiment on MCF7 is over 20 µM; in the experiment with A549, over 20 µM; with K562, over 20 µM; in the experiment with HeLa, 15.4 µM; with HEL, 9.52 µM.

For the compound `C=CC(=O)Oc1ccc(C(=O)C2=C3OC(C)(C)[C@@H](CC=C(C)C)C[C@@]34C[C@@H](CC=C(C)C)C(C)(C)[C@@](CC=C(C)C)(C2=O)C4=O)cc1OC(=O)C=C`, the IC50 is 4 µM in the experiment on MCF7; 13.7 µM with A549; over 20 µM with K562; 10.1 µM with HeLa; over 20 µM with HEL.

Regarding `C=CC(=O)Oc1cc(C(=O)C2=C3OC(C)(C)[C@@H](CC=C(C)C)C[C@@]34C[C@@H](CC=C(C)C)C(C)(C)[C@@](CC=C(C)C)(C2=O)C4=O)ccc1O`, the IC50 was over 20 µM in the experiment with MCF7; over 20 µM in the experiment with A549; 10.7 µM in the experiment with K562; 19.4 µM in the experiment on HeLa; 4.66 µM in the experiment with HEL.

Take `CC(C)=CC[C@H]1C[C@@]23C[C@@H](CC=C(C)C)C(C)(C)[C@@](CC=C(C)C)(C(=O)C(C(=O)c4ccc(OC(=O)CCCCCBr)c(OC(=O)CCCCCBr)c4)=C2OC1(C)C)C3=O`: the IC50 with MCF7, in the experiment on A549, with K562, in the experiment on HeLa and in the experiment on HEL was over 20 µM in each case.

`CC(C)=CC[C@H]1C[C@@]23C[C@@H](CC=C(C)C)C(C)(C)[C@@](CC=C(C)C)(C(=O)C(C(=O)c4ccc(OC(=O)c5ccccc5)c(OC(=O)c5ccccc5)c4)=C2OC1(C)C)C3=O`: the IC50 in the experiment with MCF7, in the experiment on A549, in the experiment with K562, in the experiment with HeLa and in the experiment with HEL was over 20 µM throughout.

For `C=CCOc1ccc(C(=O)C2=C3OC(C)(C)[C@@H](CC=C(C)C)C[C@@]34C[C@@H](CC=C(C)C)C(C)(C)[C@@](CC=C(C)C)(C2=O)C4=O)cc1O`, the IC50 with MCF7 is 11.5 µM; in the experiment with A549, over 20 µM; in the experiment on K562, over 20 µM; in the experiment on HeLa it was 15 µM; in the experiment on HEL it was over 20 µM.

Consider `CC(C)=CC[C@H]1C[C@@]23C[C@@H](CC=C(C)C)C(C)(C)[C@@](CC=C(C)C)(C(=O)C(C(=O)c4ccc(O)c(OC(=O)CCCCCBr)c4)=C2OC1(C)C)C3=O`, for which the IC50 was over 20 µM with MCF7; over 20 µM in the experiment on A549; 14.5 µM in the experiment with K562; over 20 µM with HeLa; 9.62 µM with HEL.
